{"source": "patent US20220251085A1", "about": "“CYSTEINE BINDING COMPOSITIONS AND METHODS OF USE THEREOF” (University of Virginia Patent Foundation, priority 2019, published 2022)", "key": {"[1]": {"system": "proteomes of DM93, Hela, A549, HEK293T, and Jurkat cells", "test": "Quantitative chemical proteomics (LC-MS) of Pu-1 and Pu-2 modified proteins", "format": "cell-based, HUMAN", "protocol": "Cells were grown at 37° C. in 5% CO2 until 90% confluent. Once confluent cells were washed with serum free media and treated with purine probes (Pu-1, Pu-2) at a final concentration of 25 μM for 4 hours. Cells were then scraped and washed 3× with cold PBS and lysed in PBS+protease inhibitor. Lysates were spun at 100,000×g for 45 minutes. Purine probe-modified proteins in soluble fractions were coupled to desthiobiotin-azide using copper-catalyzed azide-alkyne cycloaddition (CuAAC; 1 hour, room temperature), probe-modified proteins digested into peptides using trypsin protease, probe-modified peptides enriched by avidin affinity chromatography, and subjected to LC-MS quantitative chemical proteomics as previously described.^15 The following cell lines were used for analysis: DM93, Hela, A549, HEK293T, and Jurkat. […]\nChemical proteomics performed as described in Example 9 determined several protein modification sites targeted by Pu-1 and/or Pu-2. […]"}, "[2]": {"molecular_target": "T1, human eEF-Sec (Uniprot ID P57772) (Homo sapiens, UniProt P57772)", "T1 construct": "FLAG; expressed in transfected cells; host or cells: HEK293T", "T1 sequence (P57772 1-596)": "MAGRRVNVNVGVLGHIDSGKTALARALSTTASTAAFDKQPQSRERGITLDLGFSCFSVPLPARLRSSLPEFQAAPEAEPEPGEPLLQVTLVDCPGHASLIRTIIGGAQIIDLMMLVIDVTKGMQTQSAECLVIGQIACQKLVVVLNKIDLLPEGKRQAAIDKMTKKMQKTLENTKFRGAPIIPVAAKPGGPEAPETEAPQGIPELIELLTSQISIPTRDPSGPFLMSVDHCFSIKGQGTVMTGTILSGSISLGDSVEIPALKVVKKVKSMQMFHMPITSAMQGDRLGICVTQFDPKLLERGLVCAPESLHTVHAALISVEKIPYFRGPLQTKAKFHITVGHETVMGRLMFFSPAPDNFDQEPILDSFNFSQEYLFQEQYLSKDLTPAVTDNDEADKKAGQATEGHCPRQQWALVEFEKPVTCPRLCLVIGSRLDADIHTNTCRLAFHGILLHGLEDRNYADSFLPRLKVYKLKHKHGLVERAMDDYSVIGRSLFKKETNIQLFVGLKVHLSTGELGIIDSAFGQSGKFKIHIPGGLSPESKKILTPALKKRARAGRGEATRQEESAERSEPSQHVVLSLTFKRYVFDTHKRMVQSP", "test": "Purine probe labeling of recombinant eEF-Sec expressed in HEK293T cells, gel-based", "format": "cell-based", "conditions": "50 μM probe, live cells, 0.5 to 2 hours", "protocol": "Methods: HEK293T cells were grown at 37° C. in 5% CO2 until 40% confluent. Recombinant human eEF-Sec (Uniprot ID P57772) was expressed by transient transfection for 48 hours. […] Lysates were spun at 100,000×g for 45 minutes. […] Purine probe modified proteins were conjugated to rhodamine-azide by CuAAC, subjected to SDS-PAGE analysis, and detected by in-gel fluorescence scanning. Comparison of non-transfected (Mock) and transfected proteomes was used to identify the recombinant eEF-Sec purine probe-labeled band. […] Reduction in fluorescent signals from purine probe labeling was indicative of Pi ligand inhibitory activity. Mut represents eEF-Sec mutant where cysteine residue 442 is mutated to alanine (C442A).\nSDS-PAGE gels were transferred to nitrocellulose membrane. Nitrocellulose blots were blocked with 5% BSA. Blots were washed five times with TBS-T. Recombinant protein expression was detected using an anti-FLAG primary antibody (1:1,000) followed by fluorescent secondary antibody (1:10,000) to determine if there was equivalent protein expression across different treatment conditions."}, "[3]": {"test": "HPLC assay for profiling solution reactivity and stability of purine fragments (probes) with amino acid mimetics", "format": "physicochemical", "conditions": "for reaction with butanethiol: cysteine mimetic", "protocol": "HPLC assay for profiling solution reactivity and stability of purine fragments: The following reagents were prepared and stored on ice prior to use. 0.1 molar (M) solution of caffeine in acetonitrile, 1.0 M solution of amino acid mimetic (butanethiol—cysteine mimetic; n-butylamine—lysine mimetic; p-cresol—tyrosine mimetic; propionamide-asparagine/glutamine mimetic; butyric acid—aspartic/glutamic acid mimetic), tetramethylguanidine (TMG), 1 M acetic acid (HOAc) in acetonitrile (ACN) and 10 mM solution of purine fragment in ACN mixture. 500 μL of fragment solution were transferred to a dram vial on ice. To the mixture, 5.5 μL of TMG and 5.5 μL of respective amino acid mimetic were added and solutions were stirred on ice for 6 h. To monitor reactivity, 50 μL aliquots were removed at indicated time points and quenched with 10 μL of a 1:1 mixture of caffeine and HOAc. Samples were injected (1 μL) and analyzed by reverse-phase HPLC on a Shimadzu 1100 Series spectrometer (Shimadzu Corporation, Kyoto, Japan) with UV detection at 254 nm. Reaction progress was evaluated by monitoring consumption of starting material (purine fragment) normalized to caffeine standard. Chromatographic separation was performed using a Phenomenex Kinetex C18 column (2.6 μm, 50×4.6 mm; Phenomenex, Torrance, Calif., United States of America). Mobile phases A and B were composed of H2O+0.1% HOAc and ACN+0.1% HOAc, respectively. […] All purine fragment peak AUCs used for calculations were normalized to caffeine standard AUCs at respective time points to account for run-to-run variations by HPLC. The amount of purine fragment consumed (% starting material) was plotted as a function of time.\nDiscussion: An HPLC assay for determining the reactivity of the purine-based probes with mimetics of amino acid residues was performed. […] Reaction progress was monitored by monitoring the disappearance of starting material and appearance of product via HPLC."}}}
{"smiles": "C#CCn1cnc2nc(Cl)nc(Cl)c21", "note": "[Pu-1, 2,6-Dichloro-7-(prop-2-yn-1-yl)-7H-purine]", "values": [{"measurement": "Number of Unique Modified Residues", "setting": "[1]; Arginine (R)", "value": 2}, {"measurement": "Percentage of Modified Residues", "setting": "[1]; Arginine (R)", "value": 0.84, "unit": "%"}, {"measurement": "Number of Unique Modified Residues", "setting": "[1]; Asparagine (N)", "value": 0}, {"measurement": "Percentage of Modified Residues", "setting": "[1]; Asparagine (N)", "value": 0, "unit": "%"}, {"measurement": "Number of Unique Modified Residues", "setting": "[1]; Aspartic Acid (D)", "value": 9}, {"measurement": "Percentage of Modified Residues", "setting": "[1]; Aspartic Acid (D)", "value": 3.8, "unit": "%"}, {"measurement": "Number of Unique Modified Residues", "setting": "[1]; Cysteine (C), Byonic score>300", "value": 196}, {"measurement": "Percentage of Modified Residues", "setting": "[1]; Cysteine (C), Byonic score>300", "value": 82, "unit": "%"}, {"measurement": "Number of Unique Modified Residues", "setting": "[1]; Glutamic Acid (E)", "value": 12}, {"measurement": "Percentage of Modified Residues", "setting": "[1]; Glutamic Acid (E)", "value": 5.0, "unit": "%"}, {"measurement": "Number of Unique Modified Residues", "setting": "[1]; Glutamine (Q)", "value": 3}, {"measurement": "Percentage of Modified Residues", "setting": "[1]; Glutamine (Q)", "value": 1.3, "unit": "%"}, {"measurement": "Number of Unique Modified Residues", "setting": "[1]; Histidine (H)", "value": 1}, {"measurement": "Percentage of Modified Residues", "setting": "[1]; Histidine (H)", "value": 0.42, "unit": "%"}, {"measurement": "Number of Unique Modified Residues", "setting": "[1]; Lysine (K)", "value": 4}, {"measurement": "Percentage of Modified Residues", "setting": "[1]; Lysine (K)", "value": 1.7, "unit": "%"}, {"measurement": "Number of Unique Modified Residues", "setting": "[1]; Methionine (M)", "value": 2}, {"measurement": "Percentage of Modified Residues", "setting": "[1]; Methionine (M)", "value": 0.84, "unit": "%"}, {"measurement": "Number of Unique Modified Residues", "setting": "[1]; Serine (S)", "value": 1}, {"measurement": "Percentage of Modified Residues", "setting": "[1]; Serine (S)", "value": 0.42, "unit": "%"}, {"measurement": "Number of Unique Modified Residues", "setting": "[1]; Threonine (T)", "value": 2}, {"measurement": "Percentage of Modified Residues", "setting": "[1]; Threonine (T)", "value": 0.84, "unit": "%"}, {"measurement": "Number of Unique Modified Residues", "setting": "[1]; Tryptophan (W)", "value": 1}, {"measurement": "Percentage of Modified Residues", "setting": "[1]; Tryptophan (W)", "value": 0.42, "unit": "%"}, {"measurement": "Number of Unique Modified Residues", "setting": "[1]; Tyrosine (Y)", "value": 6}, {"measurement": "Percentage of Modified Residues", "setting": "[1]; Tyrosine (Y)", "value": 2.5, "unit": "%"}, {"measurement": "labeling of recombinant eEF-SEC", "setting": "[2]", "value": "labeled in a time dependent manner"}, {"measurement": "solution-based reactivity with amino acid mimetics", "setting": "[3]; HPLC, % starting material consumed, on ice 6 h", "value": "modifies cysteine (Cys) and tyrosine (Tyr) amino acid mimetics"}, {"measurement": "reaction kinetics compared to N9 counterparts", "setting": "[3]; butanethiol, versus Pu-2, Pu-4, Pu-10", "value": "accelerated reaction kinetics"}, {"measurement": "reactivity towards nucleophilic attack, N7 versus N9 tautomer", "setting": "[3]; compared with Pu-2", "value": "more reactive towards nucleophilic attack"}, {"measurement": "reaction with butanethiol", "setting": "[3]; on ice 6 h", "value": "react with butanethiol"}]}
{"smiles": "C#CCn1cnc2c(Cl)nc(Cl)nc21", "note": "[Pu-2, 2,6-Dichloro-9-(prop-2-yn-1-yl)-9H-purine]", "values": [{"measurement": "Number of Unique Modified Residues", "setting": "[1]; Arginine (R)", "value": 19}, {"measurement": "Percentage of Modified Residues", "setting": "[1]; Arginine (R)", "value": 1.6, "unit": "%"}, {"measurement": "Number of Unique Modified Residues", "setting": "[1]; Asparagine (N)", "value": 0}, {"measurement": "Percentage of Modified Residues", "setting": "[1]; Asparagine (N)", "value": 0, "unit": "%"}, {"measurement": "Number of Unique Modified Residues", "setting": "[1]; Aspartic Acid (D)", "value": 44}, {"measurement": "Percentage of Modified Residues", "setting": "[1]; Aspartic Acid (D)", "value": 3.7, "unit": "%"}, {"measurement": "Number of Unique Modified Residues", "setting": "[1]; Cysteine (C), Byonic score>300", "value": 952}, {"measurement": "Percentage of Modified Residues", "setting": "[1]; Cysteine (C), Byonic score>300", "value": 80, "unit": "%"}, {"measurement": "Number of Unique Modified Residues", "setting": "[1]; Glutamic Acid (E)", "value": 68}, {"measurement": "Percentage of Modified Residues", "setting": "[1]; Glutamic Acid (E)", "value": 5.7, "unit": "%"}, {"measurement": "Number of Unique Modified Residues", "setting": "[1]; Glutamine (Q)", "value": 39}, {"measurement": "Percentage of Modified Residues", "setting": "[1]; Glutamine (Q)", "value": 3.3, "unit": "%"}, {"measurement": "Number of Unique Modified Residues", "setting": "[1]; Histidine (H)", "value": 12}, {"measurement": "Percentage of Modified Residues", "setting": "[1]; Histidine (H)", "value": 1.0, "unit": "%"}, {"measurement": "Number of Unique Modified Residues", "setting": "[1]; Lysine (K)", "value": 24}, {"measurement": "Percentage of Modified Residues", "setting": "[1]; Lysine (K)", "value": 2.0, "unit": "%"}, {"measurement": "Number of Unique Modified Residues", "setting": "[1]; Methionine (M)", "value": 7}, {"measurement": "Percentage of Modified Residues", "setting": "[1]; Methionine (M)", "value": 0.59, "unit": "%"}, {"measurement": "Number of Unique Modified Residues", "setting": "[1]; Serine (S)", "value": 5}, {"measurement": "Percentage of Modified Residues", "setting": "[1]; Serine (S)", "value": 0.42, "unit": "%"}, {"measurement": "Number of Unique Modified Residues", "setting": "[1]; Threonine (T)", "value": 6}, {"measurement": "Percentage of Modified Residues", "setting": "[1]; Threonine (T)", "value": 0.50, "unit": "%"}, {"measurement": "Number of Unique Modified Residues", "setting": "[1]; Tryptophan (W)", "value": 3}, {"measurement": "Percentage of Modified Residues", "setting": "[1]; Tryptophan (W)", "value": 0.25, "unit": "%"}, {"measurement": "Number of Unique Modified Residues", "setting": "[1]; Tyrosine (Y)", "value": 17}, {"measurement": "Percentage of Modified Residues", "setting": "[1]; Tyrosine (Y)", "value": 21.4, "unit": "%"}, {"measurement": "labeling of recombinant eEF-SEC", "setting": "[2]", "value": "labeled in a time dependent manner"}, {"measurement": "reaction with butanethiol", "setting": "[3]; on ice 6 h", "value": "react with butanethiol"}, {"measurement": "reactivity with lysine mimetic", "setting": "[3]; n-butylamine, on ice 6 h", "value": "mild lysine (Lys) reactivity"}]}
